This is an account of results in article PMC10780633, “Novel Multi-Target Agents Based on the Privileged Structure of 4-Hydroxy-2-quinolinone” (Molecules, 2023).

“And” between values parts separate entries of the source, which are not always exact repeats. Equal entries are not always repeated.

Usually IC50 stands for the midpoint of a concentration-inhibition curve. Read a high IC50 as weaker potency. As usually defined, the inhibition is the percentage by which the read-out fell short of the control. Read a low inhibition as a response near the control.

A short description of assay [1]: Interaction with the stable free radical DPPH (reducing activity). The following applies: 100 μM. As to the method:
(§1) In this work, the carboxamides 3a–3u, the quinolinone–cinnamic or benzoic acid hybrids 11a–11g and the reverse amides 16a–16c were tested for their antioxidant activity via five in vitro techniques; (i) the interaction with the stable free radical 2,2-diphenyl-1-picrylhydrazyl (DPPH); (ii) the inhibition of lipid peroxidation; (iii) the hydroxyl radical scavenging ability; (iv) the 2,2-azino-bis(3-ethylbenzothiazoline-6-sulfonic acid (ABTS) radical cation (ABTS·^+) reduction; and (v) the superoxide anion radical scavenging ability.
(In general: DPPH is a stable violet radical that fades when it is reduced.)

The nature of assay [2]: Inhibition of lipid peroxidation of linoleic acid induced by AAPH radical. The following applies: 100 μM. As to the method:
as §1
The assay for the determination of the inhibition of linoleic acid peroxidation induced by the free radical initiator […](2-amidinopropane) dihydrochloride (AAPH) was performed according to the methods of Hadjipavlou-Litina et al., which we have also used in our previous works.

A further assay deals with T1, soybean lipoxygenase (Glycine max, UniProt P08170).
T1 construct: purchased Sigma Chemical, Co. (St. Louis, MO, USA)
T1 sequence (P08170 1-839): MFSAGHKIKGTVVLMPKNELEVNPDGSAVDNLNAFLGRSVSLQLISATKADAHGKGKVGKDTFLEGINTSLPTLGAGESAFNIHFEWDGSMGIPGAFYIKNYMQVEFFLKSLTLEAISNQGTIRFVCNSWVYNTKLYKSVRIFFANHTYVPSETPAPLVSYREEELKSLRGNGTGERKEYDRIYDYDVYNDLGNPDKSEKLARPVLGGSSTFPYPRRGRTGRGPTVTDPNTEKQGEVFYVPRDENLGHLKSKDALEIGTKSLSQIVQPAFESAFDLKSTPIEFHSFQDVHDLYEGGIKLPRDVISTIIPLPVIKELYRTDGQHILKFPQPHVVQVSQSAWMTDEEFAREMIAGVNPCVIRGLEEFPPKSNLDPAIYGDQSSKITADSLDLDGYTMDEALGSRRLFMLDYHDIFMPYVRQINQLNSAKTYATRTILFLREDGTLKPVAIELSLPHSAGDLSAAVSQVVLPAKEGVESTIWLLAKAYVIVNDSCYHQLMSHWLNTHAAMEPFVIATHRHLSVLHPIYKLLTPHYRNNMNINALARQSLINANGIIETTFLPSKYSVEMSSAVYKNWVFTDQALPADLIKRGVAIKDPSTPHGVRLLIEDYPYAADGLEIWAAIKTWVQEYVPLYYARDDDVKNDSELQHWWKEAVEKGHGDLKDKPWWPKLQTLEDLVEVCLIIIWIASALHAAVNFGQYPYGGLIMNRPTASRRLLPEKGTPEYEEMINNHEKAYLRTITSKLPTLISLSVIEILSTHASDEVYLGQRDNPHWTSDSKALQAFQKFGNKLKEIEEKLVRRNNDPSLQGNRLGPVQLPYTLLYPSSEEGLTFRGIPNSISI
Description: Soybean LOX inhibition in vitro (UV absorbance-based assay). It is filed as biochemical. The method, then: For this study, the UV absorbance-based soybean LOX assay was used.
The assay for the determination of the inhibition of soybean LOX was performed according to the methods of Hadjipavlou-Litina et al., which we have also used in our previous works.

The nature of assay [3]: ABTS radical cation decolorization assay. The following applies: 0.1 mM. The method, then: as §1
The experimental technique used in this section was performed according to the methods of Pontiki et al.. The results were compared to the appropriate standard inhibitor Trolox.

The nature of assay [4]: Non-enzymatic superoxide anion radical scavenging assay (PMS). The following applies: 0.1 mM. As to the method:
as §1
The experimental technique used for this assay was performed according to our previous works. Caffeic acid was used as an appropriate standard.

The nature of assay [5]: Competition with DMSO for hydroxyl radicals. To be noted: 0.1 mM. As to the method:
as §1
The assay was performed according to the methods of Pontiki et al. Trolox was used as a reference compound [78].

For the compound `CCn1c(=O)c(C(=O)NCCNC(=O)c2ccc(OC(C)=O)cc2)c(O)c2ccccc21` [Compound 11a, 4-((2-(1-ethyl-4-hydroxy-2-oxo-1,2-dihydroquinoline-3-carboxamido)ethyl)carbamoyl)phenyl acetate], the figures for the “Interaction with the Free Radical DPPH (%)” value in assay [1] (20 min) and in assay [1] (60 min) were 1.0% and 4.4%, respectively. In assay [2], the “Inhibition of Lipid Peroxidation of Linoleic Acid Induced by AAPH Radical (%)” value (“Inhibition of Lipid Peroxidation … (%)” for short) worked out at 89.0%. Further, the midpoint of inhibition against soybean lipoxygenase, the IC50, lay at 61 µM.
For the compound `CCCC(=O)Nc1c(O)c2ccccc2n(C)c1=O` [Compound 16a, N-(4-hydroxy-1-methyl-2-oxo-1,2-dihydroquinolin-3-yl)butyramide], the “Interaction with the Free Radical DPPH (%)” value in assay [1] (20 min) came out at 24.0%; in assay [1] (60 min) it was 31.0%. The “Inhibition of Lipid Peroxidation … (%)” value in assay [2] was determined as 83.0%. The 50% inhibitory concentration (IC50) against soybean lipoxygenase is 81 µM.
For the compound `O=C(Nc1ccncc1)c1c(O)c2ccccc2n(-c2ccccc2)c1=O` [Compound 3u, 4-hydroxy-2-oxo-1-phenyl-N-(pyridin-4-yl)-1,2-dihydroquinoline-3-carboxamide], the “Interaction with the Free Radical DPPH (%)” value in assay [1] (20 min) was determined as 19.3%; in assay [1] (60 min) it was 8.3%. In addition, the “Inhibition of Lipid Peroxidation … (%)” value in assay [2] came out at 16.4%. Further, the “ABTS% (ABTS radical cation decolorization)” value (“ABTS%” for short) in assay [3] is on record as “no”. In addition, the “PMS% (superoxide anion radical scavenging)” value (“PMS%” below) in assay [4] is “no”. Besides, on soybean lipoxygenase (0.1 mM), the “Inhibition of Soybean Lipoxygenase % at 0.1 mM” value is “inactive and no”.
For `Cn1c(=O)c(C(=O)Nc2ccc(O)cc2)c(O)c2ccccc21` [Compound 3f, 4-hydroxy-N-(4-hydroxyphenyl)-1-methyl-2-oxo-1,2-dihydroquinoline-3-carboxamide], the “Interaction with the Free Radical DPPH (%)” value in assay [1] (20 min) was determined as 39.3%; in assay [1] (60 min), 48.6%. The “Inhibition of Lipid Peroxidation … (%)” value in assay [2] turned out to be 100%. In assay [5], the “OH% (hydroxyl radical scavenging)” value is 67.7%. For the same compound, in assay [3], the “ABTS%” value was 77.3%. At soybean lipoxygenase, this compound displayed an IC50 of 49 µM.
In the case of `CCn1c(=O)c(C(=O)NCCNC(=O)/C=C/c2ccccc2)c(O)c2ccccc21` [Compound 11g, (E)-N-(2-cinnamamidoethyl)-1-ethyl-4-hydroxy-2-oxo-1,2-dihydroquinoline-3-carboxamide], the “Interaction with the Free Radical DPPH (%)” value in assay [1] (20 min) is on record as “no”; in assay [1] (60 min), 2.0%. Besides, the “Inhibition of Lipid Peroxidation … (%)” value in assay [2] is reported as 97.0%. In addition, the concentration for half-maximal inhibition (IC50) on soybean lipoxygenase came out at 85.5 µM.
The matching figures for `Cn1c(=O)c(NC(=O)c2ccccc2O)c(O)c2ccccc21` [Compound 16c, 2-hydroxy-N-(4-hydroxy-1-methyl-2-oxo-1,2-dihydroquinolin-3-yl)benzamide]: 25.0%, 28.0%, 88.0% and 82.5 µM.
For the compound `CCn1c(=O)c(C(=O)NCCNC(=O)/C=C/c2ccc(OC(C)=O)cc2)c(O)c2ccccc21` [Compound 11d, (E)-4-(3-((2-(1-ethyl-4-hydroxy-2-oxo-1,2-dihydroquinoline-3-carboxamido)ethyl)amino)-3-oxoprop-1-en-1-yl)phenyl acetate], the “Interaction with the Free Radical DPPH (%)” value in assay [1] (20 min) is on record as 3.0%; in assay [1] (60 min), 2.0%. For the same compound, the “Inhibition of Lipid Peroxidation … (%)” value in assay [2] came to 94.0%. For the same compound, the inhibition at 100 µM against soybean lipoxygenase (0.1 mM) stood at 5%.
As to `CCn1c(=O)c(C(=O)NCCNC(=O)/C=C/c2ccc(OC(C)=O)c(OC)c2)c(O)c2ccccc21` [Compound 11e, (E)-4-(3-((2-(1-ethyl-4-hydroxy-2-oxo-1,2-dihydroquinoline-3-carboxamido)ethyl)amino)-3-oxoprop-1-en-1-yl)-2-methoxyphenyl acetate], the entries for the “Interaction with the Free Radical DPPH (%)” value in assay [1] (20 min) and in assay [1] (60 min) were 3.0% and 5.0%, respectively. In assay [2], the “Inhibition of Lipid Peroxidation … (%)” value is 97.0%. The IC50 on soybean lipoxygenase is 52 µM and 52.5 µM.
Consider `CCn1c(=O)c(C(=O)NCCNC(=O)c2cc(OC)c(OC(C)=O)c(OC)c2)c(O)c2ccccc21` [Compound 11b, 4-((2-(1-ethyl-4-hydroxy-2-oxo-1,2-dihydroquinoline-3-carboxamido)ethyl)carbamoyl)-2,6-dimethoxyphenyl acetate], for which the “Interaction with the Free Radical DPPH (%)” value in assay [1] (20 min) is 3.0%; in assay [1] (60 min), “no”. Besides, in assay [2], the “Inhibition of Lipid Peroxidation … (%)” value is reported as 93.8%. Further, on soybean lipoxygenase, the IC50 was 70 µM.
With `CCn1c(=O)c(C(=O)NCCNC(=O)c2ccccc2)c(O)c2ccccc21` [Compound 11c, N-(2-benzamidoethyl)-1-ethyl-4-hydroxy-2-oxo-1,2-dihydroquinoline-3-carboxamide], the “Interaction with the Free Radical DPPH (%)” value in assay [1] (20 min) and in assay [1] (60 min) was 2.0% each time. Besides, the “Inhibition of Lipid Peroxidation … (%)” value in assay [2] amounted to 91.0%. At soybean lipoxygenase, this compound had an IC50 of 57.5 µM.
In the case of `CCn1c(=O)c(C(=O)NCCNC(=O)/C=C/c2ccc(OC)cc2)c(O)c2ccccc21` [Compound 11f, (E)-1-ethyl-4-hydroxy-N-(2-(3-(4-methoxyphenyl)acrylamido)ethyl)-2-oxo-1,2-dihydroquinoline-3-carboxamide], the “Interaction with the Free Radical DPPH (%)” value is given as 2.0% in assay [1] (20 min) and 4.0% in assay [1] (60 min). Further, in assay [2], the “Inhibition of Lipid Peroxidation … (%)” value worked out at 93.0%. In addition, the IC50 against soybean lipoxygenase came to 70 µM.
On to `O=C(O)/C=C/c1ccc(O)c(O)c1` [Caffeic acid, reference compound], for which, in assay [4], the “PMS%” value amounted to 23%.
As to “4-hydroxy-N-(2-hydroxy-1-phenylethyl)-2-oxo-1-phenyl-1,2-dihydroquinoline-3-carboxamide [Compound 3q]”, the “Interaction with the Free Radical DPPH (%)” value is 23.8% in assay [1] (20 min) and 10.0% in assay [1] (60 min). Also, the “Inhibition of Lipid Peroxidation … (%)” value in assay [2] worked out at 100%. For the same compound, the “ABTS%” value in assay [3] is on record as “no”. Further, in assay [4], the “PMS%” value is reported as “no”. In addition, the “Inhibition of Soybean Lipoxygenase % at 0.1 mM” value at soybean lipoxygenase (0.1 mM) is 24.0%.
For “4-hydroxy-N-(2-hydroxy-1-phenylethyl)-1-methyl-2-oxo-1,2-dihydroquinoline-3-carboxamide [Compound 3p]”, the “Interaction with the Free Radical DPPH (%)” value in assay [1] (20 min) is given as 19.5%; in assay [1] (60 min), 6.6%. Also, in assay [2], the “Inhibition of Lipid Peroxidation … (%)” value was determined as 100%. Further, the “ABTS%” value in assay [3] is reported as “no”. Also, the “PMS%” value in assay [4] was “no”. Besides, on soybean lipoxygenase (0.1 mM), the “Inhibition of Soybean Lipoxygenase % at 0.1 mM” value is “no”.
With `C[C@H](Cc1ccc(O)c(O)c1)[C@@H](C)Cc1ccc(O)c(O)c1` [NDGA, nordihydroguaiaretic acid, reference compound], the figures for the “Interaction with the Free Radical DPPH (%)” value in assay [1] (20 min) and in assay [1] (60 min) were 83.0% and 94.0%, respectively.
Take `Cc1c(C)c2c(c(C)c1O)CCC(C)(C(=O)O)O2` (stereo not shown) [Trolox, reference compound]: the “Inhibition of Lipid Peroxidation … (%)” value in assay [2] came to 88.0%. In addition, in assay [5], the “OH% (hydroxyl radical scavenging)” value is given as 82.0%. Besides, the “ABTS%” value in assay [3] came to 93.0%.
Turning to `Cc1ccc(C(=O)Nc2c(O)c3ccccc3n(C)c2=O)cc1` [Compound 16b, N-(4-hydroxy-1-methyl-2-oxo-1,2-dihydroquinolin-3-yl)-4-methylbenzamide], the entries for the “Interaction with the Free Radical DPPH (%)” value in assay [1] (20 min) and in assay [1] (60 min) were 27.0% and 32.0%, respectively. For the same compound, in assay [2], the “Inhibition of Lipid Peroxidation … (%)” value came to 88.0%. Moreover, the IC50 against soybean lipoxygenase was 100 µM.
